The numbers were not newly measured in patent US20250375478A1, “THERAPEUTIC COMPOSITION, ASSEMBLY KIT AND METHOD FOR THE TREATMENT OF DRY EYE DISEASE AND PROMOTION OF OCULAR HEALTH” (PReye, LLC, priority 2025, published 2025), which cites them from elsewhere.

For the series the following is noted: ferulic acid combined in solution with Vitamin C.

Take `COc1cc(/C=C/C(=O)O)ccc1O` [Ferulic acid]: the “stabilization of Vitamin C” value is “up to 90%”.
